Measured values from ChEMBL document CHEMBL1201862, “PubChem BioAssay data set” (2004).
Active and inactive are the calls of the source.

Assays:
[1] = target: ORF 73 (Human herpesvirus 8, UniProt O40947); assay: KSHV LANA DNA-binding disruption – biochemical, fluorescence polarization, cherry-picked samples, dose response (AID 504725); design: species or system Human gammaherpesvirus 8;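 further: fluorescence polarization of a labeled DNA duplex reporting LANA DNA binding; potency is for inhibitors that block LANA binding to the DNA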
[2] = target: T1, Histone-lysine N-methyltransferase NSD2 (Homo sapiens, UniProt O96028); format: biochemical
T1 sequence (O96028 whole entry): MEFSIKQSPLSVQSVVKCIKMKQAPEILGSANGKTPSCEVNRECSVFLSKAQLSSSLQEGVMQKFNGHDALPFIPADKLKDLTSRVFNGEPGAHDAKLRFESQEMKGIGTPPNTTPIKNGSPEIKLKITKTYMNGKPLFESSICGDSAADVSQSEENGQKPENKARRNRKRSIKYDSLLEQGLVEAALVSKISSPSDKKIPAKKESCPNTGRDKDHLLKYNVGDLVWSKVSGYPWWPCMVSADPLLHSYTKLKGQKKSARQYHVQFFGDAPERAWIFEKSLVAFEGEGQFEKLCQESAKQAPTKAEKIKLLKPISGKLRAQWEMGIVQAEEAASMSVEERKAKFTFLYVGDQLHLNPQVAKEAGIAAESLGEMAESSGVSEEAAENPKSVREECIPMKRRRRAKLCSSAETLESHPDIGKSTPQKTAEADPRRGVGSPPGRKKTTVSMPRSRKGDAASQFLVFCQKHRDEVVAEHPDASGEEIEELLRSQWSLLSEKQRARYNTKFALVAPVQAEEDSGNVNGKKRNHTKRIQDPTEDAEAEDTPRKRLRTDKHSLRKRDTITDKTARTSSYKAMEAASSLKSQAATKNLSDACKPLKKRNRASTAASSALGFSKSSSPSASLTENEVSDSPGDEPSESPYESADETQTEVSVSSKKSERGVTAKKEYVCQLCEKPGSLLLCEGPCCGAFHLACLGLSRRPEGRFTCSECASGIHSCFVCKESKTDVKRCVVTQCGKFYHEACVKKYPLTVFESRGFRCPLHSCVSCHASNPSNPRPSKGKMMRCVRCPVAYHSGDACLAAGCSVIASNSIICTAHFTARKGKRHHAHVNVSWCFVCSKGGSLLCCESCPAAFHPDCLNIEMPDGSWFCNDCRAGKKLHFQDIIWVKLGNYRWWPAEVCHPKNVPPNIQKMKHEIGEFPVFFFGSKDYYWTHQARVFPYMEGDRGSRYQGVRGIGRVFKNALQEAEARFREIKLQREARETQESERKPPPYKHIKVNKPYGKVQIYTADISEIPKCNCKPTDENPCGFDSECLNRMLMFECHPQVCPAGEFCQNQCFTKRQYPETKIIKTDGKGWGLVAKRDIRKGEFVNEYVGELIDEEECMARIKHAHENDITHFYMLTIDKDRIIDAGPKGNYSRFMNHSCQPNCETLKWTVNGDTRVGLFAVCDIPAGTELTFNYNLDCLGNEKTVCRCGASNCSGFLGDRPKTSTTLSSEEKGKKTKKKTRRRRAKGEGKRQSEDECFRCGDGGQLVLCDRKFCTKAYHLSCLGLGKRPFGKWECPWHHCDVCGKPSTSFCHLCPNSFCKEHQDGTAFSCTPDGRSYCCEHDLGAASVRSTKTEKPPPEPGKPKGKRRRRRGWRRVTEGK

[3] = target: SWI/SNF-related matrix-associated actin-dependent regulator of chromatin subfamily A member 2 (Homo sapiens, UniProt P51531); assay: Luminescence-based cell-based high throughput dose response assay to identify activators of the function of SWI/SNF related, matrix associated, actin dependent regulator of chromatin, subfamily a, member 2 (SMARCA2, BRM).; format: functional
[4] = target: Tyrosyl-DNA phosphodiesterase 2 (Homo sapiens, UniProt O95551); assay: potency against TDP2 phosphodiesterase activity – biochemical, epi absorbance, IC50, dose response (AID 743297)
[5] = test system: HeLa; assay: viability loss in HeLa cells – cell-based, 24 h, cherry-picked samples, cytotoxicity control, dose response (AID 504726); format: functional; conditions: Homo sapiens;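 further: potency for cytotoxicity as loss of luminescence signal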
[6] = target: Dual specificity tyrosine-phosphorylation-regulated kinase 1A (Rattus norvegicus, UniProt Q63470); format: biochemical, Homo sapiens
[7] = viability loss in HeLa cells – cytotoxicity control for MgcRacGAP inhibitor project, dose response (AID 624300); format: functional
[8] = Counterscreen for activators of the function of SWI/SNF related, matrix associated, actin dependent regulator of chromatin, subfamily a, member 2 (SMARCA2, BRM): Luminescence-based cell-based high throughput dose response assay to identify non-selective compounds using the VP16 reporter assay.; format: functional
[9] = target: T2, Rac GTPase-activating protein 1 (Homo sapiens, UniProt Q9H0H5); assay: blockers of MgcRacGAP-driven Rac1 GTP hydrolysis – biochemical, ADP Hunter fluorescence, primary and confirmatory, confirmation (AID 624330); format: functional
T2 sequence (Q9H0H5 whole entry): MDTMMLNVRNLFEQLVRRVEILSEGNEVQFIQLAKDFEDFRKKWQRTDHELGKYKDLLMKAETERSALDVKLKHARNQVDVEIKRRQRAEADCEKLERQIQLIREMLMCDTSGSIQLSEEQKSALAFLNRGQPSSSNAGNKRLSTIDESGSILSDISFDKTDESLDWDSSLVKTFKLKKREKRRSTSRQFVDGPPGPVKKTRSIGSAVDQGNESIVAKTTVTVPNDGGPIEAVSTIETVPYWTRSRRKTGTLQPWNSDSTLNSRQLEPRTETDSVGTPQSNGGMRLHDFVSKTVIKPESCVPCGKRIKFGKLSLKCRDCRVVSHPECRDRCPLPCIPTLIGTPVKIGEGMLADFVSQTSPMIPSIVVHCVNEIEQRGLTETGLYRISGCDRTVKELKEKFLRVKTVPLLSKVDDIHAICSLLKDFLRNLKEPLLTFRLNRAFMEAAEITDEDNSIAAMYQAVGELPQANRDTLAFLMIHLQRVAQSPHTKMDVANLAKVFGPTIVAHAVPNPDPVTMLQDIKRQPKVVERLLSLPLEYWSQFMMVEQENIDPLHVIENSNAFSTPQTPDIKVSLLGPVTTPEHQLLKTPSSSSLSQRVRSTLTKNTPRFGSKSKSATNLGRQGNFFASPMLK

[10] = target: T3, Streptokinase A (Streptococcus pyogenes serotype M1, UniProt P10520); assay: viability-normalized secreted streptokinase activity reduction – plasminogen activation absorbance, OD405, dose response (AID 1914); format: functional, Streptococcus pyogenes M1 GAS;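 further: secreted streptokinase activity via plasminogen activation per viability signal from cell pellet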
T3 sequence (P10520 whole entry): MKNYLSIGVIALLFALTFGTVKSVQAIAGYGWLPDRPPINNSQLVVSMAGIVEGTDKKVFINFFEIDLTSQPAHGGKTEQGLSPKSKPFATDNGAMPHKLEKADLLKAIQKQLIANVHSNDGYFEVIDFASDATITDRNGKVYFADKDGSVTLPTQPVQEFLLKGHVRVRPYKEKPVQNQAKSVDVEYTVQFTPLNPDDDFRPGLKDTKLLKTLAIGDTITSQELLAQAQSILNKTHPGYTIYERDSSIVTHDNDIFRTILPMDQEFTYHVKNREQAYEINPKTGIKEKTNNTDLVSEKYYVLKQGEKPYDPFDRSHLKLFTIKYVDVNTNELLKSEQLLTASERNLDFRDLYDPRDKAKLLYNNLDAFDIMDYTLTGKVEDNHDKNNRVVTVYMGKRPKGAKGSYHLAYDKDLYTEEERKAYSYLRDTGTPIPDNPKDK

[11] = viability of uninfected HEp-2 cells – cell-based, HTS, cytotoxicity control for RSV inhibitor project, dose response (AID 2410); format: functional; conditions: human respiratory syncytial virus
[12] = test system: Streptococcus sp. 'group A'; assay: Streptococcus pyogenes SK(-)GAS viability under kanamycin – luminescence, BacTiterGlo, confirmation, counter-screen for streptokinase expression inhibitor project, dose response (AID 1900); format: functional, organism-based
[13] = target: Major prion protein (Homo sapiens, UniProt P04156); format: functional, cell-based
[14] = cells
[15] = target: T4, Calpain-2 catalytic subunit (Sus scrofa, UniProt P43367); assay: m-calpain protease blockers, concentration series – biochemical, fluorogenic peptide substrate, dose response (AID 1420); format: functional
T4 sequence (P43367 whole entry): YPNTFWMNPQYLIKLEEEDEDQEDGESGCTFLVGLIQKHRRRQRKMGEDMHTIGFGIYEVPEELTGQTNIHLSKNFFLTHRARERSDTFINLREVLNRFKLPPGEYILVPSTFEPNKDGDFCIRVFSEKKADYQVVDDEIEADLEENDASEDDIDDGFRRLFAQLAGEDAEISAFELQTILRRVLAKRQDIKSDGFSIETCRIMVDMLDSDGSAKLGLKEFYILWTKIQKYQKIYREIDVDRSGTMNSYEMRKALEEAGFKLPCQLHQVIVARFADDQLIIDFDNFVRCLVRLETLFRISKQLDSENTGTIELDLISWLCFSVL

[16] = test system: Streptococcus; assay: GAS UMAA2166 growth inhibition – luminescence, BacTiterGlo, counter-screen for streptokinase expression inhibitor project, dose response (AID 1915); format: functional, organism-based;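 further: potency for reduction of bacterial viability or growth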
[17] = inhibitors acting on PAX2 in cells – cell-based, plate reader, dry powder samples, selectivity assay for PAX8 inhibitor project, dose response (AID 743048); format: functional;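 further: HEK293 cells carrying a WT1 promoter luciferase reporter driven by expressed Pax2; potency is for inhibition of Pax2 driven reporter signal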
[18] = OV-90 cell viability loss – plate reader, dry powder, SA8, PAX8 inhibitor project, dose response (AID 743149); format: functional, cell-based
[19] = PAX5 cellular inhibition readout – cell-based, plate reader, dry powder samples, selectivity assay for PAX8 inhibitor project, dose response (AID 743047); format: functional;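 further: HEK293 cells carrying a Pax5 driven CD19 promoter luciferase reporter; potency of inhibitors that lower reporter luminescence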
[20] = target: Protein disulfide-isomerase (Homo sapiens, UniProt P07237); assay: inhibition of PDI-mediated insulin reduction – biochemical, turbidity, dry powder samples, set 2, confirmation (AID 652146)

What does the source list for `CCN(CC)CCCNc1ccc2ncn3c4ccc(O)cc4c(=O)c1c23`?
AC50 [1]: 2.05 µM (active); AC50 [2]: 12.7 µM (active); EC50 [3]: 20.5 µM (inactive); IC50 [4]: > 128 µM (inactive); AC50 [5]: > 350 µM (inactive); AC50 [6]: 2.77 µM (active); CC50 [7]: 89.3 µM (active); EC50 [8]: > 91.2 µM (inactive); IC50 [9]: 56.4 µM (active)

With `Cc1nc(-c2ccc(S(=O)(=O)Nc3ccc(Br)cc3Cl)s2)cs1` as the compound, how does the EC50 [10] read?
The EC50 was 3.98 µM (active).

What about the CC50 [11] of the same compound?
The CC50 was 16.6 µM (active).

What about the EC50 [12] of the same compound?
The EC50 was 3.04 µM (active).

What about the IC50 [13] of the same compound?
Its IC50 is 12.5 µM (inactive).

What about the IC50 [14] of the same compound?
Its IC50 is > 138 µM (inactive).

And the IC50 [15]?
Its IC50 is 12.2 µM (active).

And the EC50 [16]?
Its EC50 is 11.9 µM (active).

What does the source list for `COc1cccc(C#Cc2ccc([C@@H]3[C@@H](C#N)N(C(=O)C4CCCC4)[C@@H]3CO)cc2)c1`?
AC50 [17]: 31.6 µM (active); AC50 [18]: > 70 µM (inactive); AC50 [19]: 30.7 µM (active)

For `C=CCOc1ccc(CN2CCC(CCOc3ccccc3)(C(=O)O)CC2)cc1Cl`, which AC50 [20] is on record?
The AC50 was 20 µM (active).
